From PubChem BioAssay AID1648 (Sanford-Burnham Center for Chemical Genomics, 2009) come the findings set out here.

Active and inactive are the calls of the source. No rule for the calls is given here.

Chain of Serine/threonine-protein kinase mTOR (Homo sapiens) (P42345 2015-2114): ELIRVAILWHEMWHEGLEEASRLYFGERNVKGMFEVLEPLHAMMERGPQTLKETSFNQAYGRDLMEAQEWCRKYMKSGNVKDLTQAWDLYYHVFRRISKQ

The test concerns the target Serine/threonine-protein kinase mTOR (Homo sapiens) (UniProt P42345). The test is described as follows: binders of mTOR FRB domain, biophysical, NMR (AID 1648). The conditions noted are these: NMR binding to FRB domain, chemical shift.
One may read the Kd as the constant that tells how readily two partners part at equilibrium. Take `OCc1ncoc1-c1ccccc1`: the Kd was > 4 mM (inactive). The figure for `COC(=O)c1cccc2cc[nH]c12` is > 4 mM (inactive); for `Nc1cccc(S(=O)(=O)N2CCOCC2)c1` it is > 4 mM (inactive); for `NC(=O)C1CCN(c2ccc(Cl)nn2)CC1` it is > 4 mM (inactive). Consider `CCCCCCCCCCCCCCC(C(=O)OC)C(O)(CC(=O)OC)C(=O)OC` (centres undefined), for which the Kd was > 4 mM (inactive). On to `COc1ccc2c(c1)[nH]c1c(C)nccc12`, for which the Kd was > 4 mM (inactive). The figure for `O=C(c1ccc(F)cc1)N1CCOCC1` is > 4 mM (inactive).

On to `O=C1N=C(N2CCOCC2)S/C1=C\c1cccnc1`, for which the Kd was > 4 mM (inactive). As for `Cc1ccc(-c2nn3c(C)nnc3s2)cc1N`, the Kd was > 4 mM (inactive). To `c1ccc(CSc2ncccn2)cc1` belongs > 4 mM (inactive). Consider `COc1cc(OC)c2c(c1)O[C@H](c1ccc(OC)c(OC)c1)[C@@H](O)C2`, for which the Kd is > 4 mM (inactive). The figure for `Cc1cc(NC(=O)CCCn2cnc([N+](=O)[O-])n2)no1` is > 4 mM (inactive); for `O=C(Nc1ccon1)c1csc2ccccc12` it is > 4 mM (inactive).

`C=CCCCCCCCCCCCc1ccco1`: the Kd was > 4 mM (inactive). The figure for `Cc1ccc2c(c1)=C(c1sc(N)nc1O)C(=O)N=2` is > 4 mM (inactive). For `CCN1C(=O)c2cccc3c(S(N)(=O)=O)ccc1c23`, the Kd was > 4 mM (inactive). The figure for `CC1=C(C(N)=O)C(c2cccs2)C(C(N)=O)=C(C)N1` is > 4 mM (inactive); for `Nc1nc(SCc2ccc3c(c2)OCCO3)n[nH]1` it is > 4 mM (inactive); for `Nc1ccc(-n2cccc2)cc1` it is > 4 mM (inactive). For `CN1CC(=O)Nc2ccc([N+](=O)[O-])cc2C1=O`, the Kd was > 4 mM (inactive).

For the compound `O=C(O)Cn1c(C(F)(F)F)nc2ccccc21`, the Kd is > 4 mM (inactive). To `C/C(O)=c1/sc2cc(C)nc(=N)n2c1=O` belongs > 4 mM (inactive); to `NCc1ccc(S(N)(=O)=O)cc1`, > 4 mM (inactive). Regarding `C=C[C@H]1CN2CC[C@H]1C[C@@H]2[C@H](O)c1ccnc2ccccc12`, the Kd was > 4 mM (inactive). To `CS(=O)(=O)N1CCC(C(=O)NC2CCCC2)CC1` belongs > 4 mM (inactive). `CCOC(=O)C1C(C=C(C)C)C1(C)C` (centres undefined): the Kd was > 4 mM (inactive).

Consider `COc1cc(C)c2c(c1C=O)Oc1c(c(C)c(O)c3c1C(O)OC3=O)OC2=O` (centres undefined), for which the Kd is > 4 mM (inactive).

As to `O=C(Nc1ccccc1C(F)(F)F)c1cnccn1`, the Kd was > 4 mM (inactive). To `Oc1ccccc1N1CCOCC1` belongs > 4 mM (inactive). Consider `CC(=O)O[C@H]1CC[C@@]2(C)C(CC[C@]3(C)C2C(=O)C=C2C4[C@@H](C)[C@H](C)CC[C@]4(C(=O)O)CC[C@]23C)C1(C)C` (some centres undefined), for which the Kd is > 4 mM (inactive). Take `NC(=O)Cn1cnc2ccccc21`: the Kd was > 4 mM (inactive). To `Cc1cc(N(CN2CCCC2=O)C(=O)c2ccccc2)no1` belongs > 4 mM (inactive). Turning to `Nc1ncnc(Nc2ccccc2C(F)(F)F)n1`, the Kd was > 4 mM (inactive). As for `Nc1cccc2nonc12`, the Kd is > 4 mM (inactive). To `CC(=O)Nc1sccc1C(N)=O` belongs > 4 mM (inactive).

Consider `O=C(O)c1cc2ccccc2cn1`, for which the Kd was > 4 mM (inactive). For `O=C(Nc1ccccc1[N+](=O)[O-])c1ccc(=O)[nH]n1`, the Kd was > 4 mM (inactive). The figure for `COc1ccccc1NC(=O)c1snnc1C` is > 4 mM (inactive). The figure for `CN(C)S(=O)(=O)c1ccc(NC=O)cc1` is > 4 mM (inactive); for `COc1cccc(S(=O)(=O)Nc2cccnc2)c1` it is > 4 mM (inactive).

For `Cc1ccc(C(=O)N2CC(=O)NC(=O)C2)cc1`, the Kd is > 4 mM (inactive).

For the compound `O=C(O)c1cncc(-c2ccccc2)c1`, the Kd was > 4 mM (inactive).

Regarding `Cn1nnc2cc(C(=O)O)ccc21`, the Kd was > 4 mM (inactive).

Consider `O=C(O)C1CCCN1Cc1c[nH]c2ccccc12` (centres undefined), for which the Kd is > 4 mM (inactive). The figure for `COc1ccc(-c2cc(=O)c3c(O)cc(O[C@@H]4O[C@H](CO[C@H]5O[C@H](C)[C@@H](O)[C@H](O)[C@@H]5O)[C@@H](O)[C@H](O)[C@H]4O)cc3o2)cc1O` is > 4 mM (inactive). To `Cn1c(=O)c2ccccc2n(Cc2ccccc2F)c1=O` belongs > 4 mM (inactive); to `CN(C)C(=O)CSc1cccc2cccnc12`, > 4 mM (inactive); to `C/C=C(\C)C(=O)O[C@@H]1c2c(ccc3ccc(=O)oc23)OC(C)(C)[C@@H]1OC(C)=O`, > 4 mM (inactive). The figure for `O=C(O)c1ccc2c(c1)OCCO2` is > 4 mM (inactive); for `COc1cc2c(cc1-c1cc3cc4ccoc4cc3oc1=O)OCO2` it is > 4 mM (inactive); for `CN1CCC(O)N1C(=O)c1ccccc1O` (centres undefined) it is > 4 mM (inactive).

For the compound `CC(C)=CCc1c2c(c3occ(-c4ccc(O)cc4)c(=O)c3c1O)C=CC(C)(C)O2`, the Kd is > 4 mM (inactive).

As for `NC12CC3CC(C1)CC(O)(C3)C2`, the Kd was > 4 mM (inactive).

For `CC(C)NC(=O)c1cc(-n2cnnc2)ccc1Cl`, the Kd was > 4 mM (inactive). To `O=C(CC1CCCCC1)N1CCN(c2ccccn2)CC1` belongs > 4 mM (inactive). In the case of `COc1ccc(-c2ccc(=O)n(CC(N)=O)n2)cc1`, the Kd is > 4 mM (inactive). As for `Cc1nc(N)sc1C(=O)Nc1nccs1`, the Kd is > 4 mM (inactive).

Regarding `Cc1c(F)cccc1NS(=O)(=O)c1ccccc1C#N`, the Kd was > 4 mM (inactive). To `CC1=CC2C(C(C)C)CCC(C)(O)C2CC1` (centres undefined) belongs > 4 mM (inactive); to `COc1ccc2c(c1)=C(c1sc(N)nc1O)C(=O)N=2`, > 4 mM (inactive). As for `O=C(Nc1cccnc1)c1cnn2cccnc12`, the Kd was > 4 mM (inactive).

Consider `CNC(=S)Nc1ccc(OC)cc1C`, for which the Kd is > 4 mM (inactive). To `Cc1cc(C(=O)NC2=NCCS2)cs1` belongs > 4 mM (inactive); to `C=CCNC(=O)c1nn2cccnc2c1Cl`, > 4 mM (inactive); to `O=C(Nc1nc2ccccc2s1)c1ccc(=O)[nH]n1`, > 4 mM (inactive). To `CCOC(=O)c1c(SC)nc(=O)[nH]c1C` belongs > 4 mM (inactive); to `CC(=O)c1c(C)nc(-c2cccs2)n1O`, > 4 mM (inactive); to `O=C(Nc1ccccn1)C(=O)N1CCCC1`, > 4 mM (inactive). For `CC(=O)Nc1ccc2c(C)cc(=O)[nH]c2c1`, the Kd is > 4 mM (inactive). With `Cc1ccc(NC(=O)C(=O)Nc2ccccn2)cc1`, the Kd is > 4 mM (inactive).

For the compound `S=C(NC1CC1)NN1CCOCC1`, the Kd is > 4 mM (inactive).

As to `CCCCN1C(=O)C2CC/C(=N/O)CC2C1=O` (centres undefined), the Kd is > 4 mM (inactive).

With `Cc1cc(=O)[nH]c(N2CCCCC2)n1`, the Kd is > 4 mM (inactive). The figure for `CC1(C)CC(=O)c2sc(N)nc2C1` is > 4 mM (inactive).
